Laboratory results taken from article PMC5084075 (ACS Central Science, 2016).
Read-outs that look alike come from different tables or passages of the source.

How the values were obtained:
PfDHODH [1] = target: T1, PfDHODH (Plasmodium falciparum, UniProt Q08210); experiment: biochemical; design: PfDHODH enzyme inhibition IC50; settings: read-out: >50
T1 sequence (Q08210 1-569): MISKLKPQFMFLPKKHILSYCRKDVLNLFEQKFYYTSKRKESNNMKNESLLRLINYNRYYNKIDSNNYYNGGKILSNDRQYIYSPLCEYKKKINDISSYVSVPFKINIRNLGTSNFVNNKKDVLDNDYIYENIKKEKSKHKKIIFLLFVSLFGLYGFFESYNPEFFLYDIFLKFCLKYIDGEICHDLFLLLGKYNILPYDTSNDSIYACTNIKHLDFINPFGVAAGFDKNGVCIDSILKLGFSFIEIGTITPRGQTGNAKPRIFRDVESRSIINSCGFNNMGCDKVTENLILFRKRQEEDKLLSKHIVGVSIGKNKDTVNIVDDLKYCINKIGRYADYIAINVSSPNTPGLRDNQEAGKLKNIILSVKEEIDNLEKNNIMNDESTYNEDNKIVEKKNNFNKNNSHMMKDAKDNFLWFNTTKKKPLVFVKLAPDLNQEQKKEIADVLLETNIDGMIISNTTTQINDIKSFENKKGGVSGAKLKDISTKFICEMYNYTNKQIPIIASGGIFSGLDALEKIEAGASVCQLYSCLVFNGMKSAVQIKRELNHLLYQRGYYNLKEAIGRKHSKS

[2] = test system: T2, Plasmodium falciparum K1 (chloroquine resistant); experiment: microbe, parasite or virus in culture; design: species or system P. falciparum blood stage culture; whole-cell asexual blood stage P. falciparum growth inhibition
T2 construct: K1
Procedure: (§1) To confirm the promise of the two starting points OSM-S-5 and -6, they were evaluated against 3D7 (drug-sensitive) and K1 (chloroquine resistant) strains of Plasmodium falciparum in a whole cell assay and against HEK-293 cells as a cytotoxicity marker (Table SB1, Biological Protocols; tables with the prefix “SB” may be found in the Supporting Information). Biological data may be browsed in a static data set taken as a snapshot for this paper (Data Sets S1 (Excel), S2 (SDF)), online in a database constructed through periodic batch uploads,[68] or in a “living database” to which may be added future data;[69] the latter may be visualized in a web browser[70] using an open source system that was recently deployed in the Wikipedia Chemical Structure Explorer,[71] or the data may be downloaded and visualized offline with proprietary (Figure S4)[72] or open source (Figure S5)[73] tools). The evaluation was performed in three different institutions using different assays and widely employed controls; controls are important to assess reproducibility and interassay variability[74] but also to minimize possible bias in evaluating compounds where there are pre-existing data from other researchers already in the public domain (Figure S6).[75]

[3] = test system: T3, Plasmodium falciparum 3D7; experiment: microbe, parasite or virus in culture; design: species or system P. falciparum blood stage culture; whole-cell asexual blood stage P. falciparum growth inhibition; settings: Avery assay, read-out: 3D7 / IC50nM
T3 construct: 3D7
Procedure: as §1

in vitro [4] = experiment: in vitro; design: cytotoxicity counter-screen on HEK293 cells; settings: human, hek293 cells; read-out: HEK 293 / IC50nM
Procedure: as §1

[5] = test system: Plasmodium falciparum late stage (IV-V) gametocytes; experiment: microbe, parasite or virus in culture; design: species or system P. falciparum gametocytes; late stage (IV-V) gametocyte viability assay; settings: 96 h, read-out: Late Stage Gametocyte (Avery)
Procedure: There are relatively few compounds effective against the gametocyte stage of the parasite,[12],[13] though such compounds are important in the prevention of disease transmission. Four compounds found to be active in the asexual assay were evaluated against late stage (IV–V) gametocytes. […] The discrepancy in the data arising from these two gametocyte assays may arise from the slightly different cell biology assayed (stage IV/V gametocytes vs stage V mature gametocytes) or most likely is a function of the relative compound exposure times (96 h vs 24 h).

PfDHODH [6] = target: T1, PfDHODH; experiment: biochemical; design: PfDHODH enzyme inhibition IC50; settings: read-out: DHODH
Excerpt: (§2) The potency of the near neighbor set led to an in silico target prediction study being performed on OSM-S-39 (Text S11). The method employed a naive Bayes statistical model identifying molecular structural features of small molecules with protein targets, using the ChEMBL database. Similar statistical approaches based on known activities of compounds have been successfully applied to identify targets of antitubercular compounds.[112]−[114] A total of 1,287 proteins were included for which at least 50 active compounds were known with activities <10 μM, with the other compounds in the database comprising the inactives. After the OSM compounds were scored against each target, the scores obtained were standardized by comparison with scores obtained through comparison with a random set of >10K compounds. The prediction list was culled for proteins relevant to malaria (3D7 proteome), and the analysis gave as the most likely candidate targets, in order of significance, carboxy-terminal domain RNA polymerase II polypeptide A small phosphatase 1 (Q8I3U9), dihydroorotate dehydrogenase (DHODH, Q08210), SUMO-activating enzyme subunit 2 (Q8I553) and 1 (Q8IHS2), and cyclin-dependent kinase 1 (P61075). […] A line of inquiry remaining open is the equivalent assays against the other targets identified in the in silico prediction.

[7] = target: T4, hERG (human ether-à-go-go-related gene ion channel) (Homo sapiens, UniProt Q12809); experiment: cell-based; design: hERG channel inhibition counterscreen; settings: read-out: hERG pIC50 (converted)
T4 construct: gene KCNH2
Excerpt: There is increasing awareness of the importance for drug candidates of inhibition of hERG (the human ether-à-go-go-related gene ion channel), which is sensitive to blockade by many drug-like structures. Such blockage has led to a number of prominent postmarketing withdrawals.[103] Regulators are sensitive to any hERG activity, and a hERG counterscreen is often now run early in hit characterization and series prioritization.

HEK293 = experiment: cells; design: cytotoxicity counter-screen on HEK293 cells; settings: Homo sapiens, cytotoxicity
Procedure: as §1

in vitro [8] = experiment: in vitro; design: microsomal stability with NADPH, LC-MS, half-life and CLint; settings: human, liver microsomes, HLM; for microsomal CLint: read-out: CLint HLM (Monash); for half-life: read-out: t1/2 HLM (Monash)
Procedure: (§3) The two original GSK hits (OSM-S-5 and -6) and six NN compounds were evaluated for their kinetic solubility in phosphate buffer and their metabolic stability in human liver microsomes (Table SB5, Data Sets S20 and S21).

in vitro [9] = experiment: in vitro; design: metabolic stability in human liver microsomes, LC-MS, NADPH, 0.4 mg/mL protein; settings: liver microsomes, human liver microsomes; for microsomal CLint: read-out: CLint HLM (Monash); for half-life: read-out: t1/2 HLM (Monash)
Procedure: as §3

[10] = test system: Plasmodium falciparum Pfal (strain not named in column head); experiment: microbe, parasite or virus in culture; design: species or system P. falciparum blood stage culture; whole-cell asexual blood stage P. falciparum growth inhibition; settings: Guy assay
Procedure: as §1

[11] = test system: T5, Plasmodium falciparum Pfal (3D7); experiment: microbe, parasite or virus in culture; design: species or system erythrocytes; P. falciparum asexual blood-stage whole-cell growth inhibition, IC50; settings: 3D7, Erythrocyte, lab named in column head, read-out: Pfal IC50 (Guy)
T5 construct: 3D7
Procedure: as §1

[12] = test system: T6, Plasmodium falciparum Pfal (K1); experiment: microbe, parasite or virus in culture; design: species or system erythrocytes; P. falciparum asexual blood-stage whole-cell growth inhibition, IC50; settings: K1, Erythrocyte, lab named in column head, read-out: Pfal (K1) IC50 (Guy)
T6 construct: K1
Procedure: as §1

in vitro [13] = experiment: in vitro; design: HepG2 cytotoxicity beside the liver stage assay; settings: human, hepg2 cells
Excerpt: (§4) Of particular note is the striking potency of the nontoxic compound OSM-S-38, which may at this level provide protection from malaria to people who have been treated with the compound after an infectious bite.

[14] = test system: Plasmodium falciparum mature stage V gametocytes (DGFA); experiment: microbe, parasite or virus in culture; design: dual gamete formation assay, inhibition of male and female gamete formation; settings: 24 h
Procedure: The discrepancy in the data arising from these two gametocyte assays may arise from the slightly different cell biology assayed (stage IV/V gametocytes vs stage V mature gametocytes) or most likely is a function of the relative compound exposure times (96 h vs 24 h).

PfDHODH [15] = target: T1, PfDHODH; experiment: biochemical; design: PfDHODH enzyme inhibition assay, IC50; settings: read-out: DHODH
Excerpt: as §2

in vitro [16] = experiment: in vitro; design: metabolic stability in mouse liver microsomes, LC-MS, NADPH, 0.4 mg/mL protein; settings: liver microsomes, mouse liver microsomes
Procedure: as §3

[17] = test system: Plasmodium berghei Pb Liver Stage; experiment: microbe, parasite or virus in culture; design: liver stage assay, sporozoites in liver cells; settings: HepG2
Excerpt: as §4

[18] = test system: Plasmodium berghei Pb Liver Stage; experiment: microbe, parasite or virus in culture; design: P. berghei sporozoite liver stage development inhibition, IC50; settings: HepG2
Excerpt: as §4

[19] = Avery assay, read-out: K1 / IC50nM
[20] = Guy assay, read-out: Pfal (K1) IC50 (Guy)

T4 sequence (Q12809 whole entry): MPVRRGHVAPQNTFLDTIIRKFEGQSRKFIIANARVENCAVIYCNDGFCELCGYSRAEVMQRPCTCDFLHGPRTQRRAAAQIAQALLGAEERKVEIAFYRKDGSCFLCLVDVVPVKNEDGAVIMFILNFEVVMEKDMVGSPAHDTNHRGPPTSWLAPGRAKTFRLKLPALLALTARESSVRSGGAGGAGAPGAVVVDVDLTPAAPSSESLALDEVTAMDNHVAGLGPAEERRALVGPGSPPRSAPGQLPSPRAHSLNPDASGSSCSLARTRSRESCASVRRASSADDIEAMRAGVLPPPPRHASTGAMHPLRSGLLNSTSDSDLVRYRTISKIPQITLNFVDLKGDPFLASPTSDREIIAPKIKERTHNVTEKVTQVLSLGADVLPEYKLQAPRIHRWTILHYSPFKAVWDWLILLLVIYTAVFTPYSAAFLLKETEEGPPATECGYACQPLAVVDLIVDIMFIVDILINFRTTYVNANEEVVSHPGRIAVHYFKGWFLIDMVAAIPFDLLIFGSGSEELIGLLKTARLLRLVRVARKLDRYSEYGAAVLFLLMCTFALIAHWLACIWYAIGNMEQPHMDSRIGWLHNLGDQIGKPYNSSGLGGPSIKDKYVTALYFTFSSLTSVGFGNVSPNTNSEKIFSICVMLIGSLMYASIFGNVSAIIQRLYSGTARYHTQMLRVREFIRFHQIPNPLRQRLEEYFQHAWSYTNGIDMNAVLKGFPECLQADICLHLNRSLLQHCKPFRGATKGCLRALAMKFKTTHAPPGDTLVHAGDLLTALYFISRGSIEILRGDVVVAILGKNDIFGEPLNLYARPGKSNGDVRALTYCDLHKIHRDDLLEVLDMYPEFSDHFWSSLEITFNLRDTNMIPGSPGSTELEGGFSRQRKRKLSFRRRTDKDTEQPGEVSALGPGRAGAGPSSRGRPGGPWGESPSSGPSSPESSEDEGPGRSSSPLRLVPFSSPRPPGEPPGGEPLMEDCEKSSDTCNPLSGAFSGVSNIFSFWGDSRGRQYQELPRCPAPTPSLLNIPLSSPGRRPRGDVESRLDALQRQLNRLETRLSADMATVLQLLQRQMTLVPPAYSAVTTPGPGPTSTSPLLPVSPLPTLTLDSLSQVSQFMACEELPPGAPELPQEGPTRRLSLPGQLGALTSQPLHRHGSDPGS

## CC(C)=CCC1=C(O)C(=O)c2ccccc2C1=O [Lapachol]
PfDHODH [1]
  IC50: > 100000 nM

## CN(Cc1cnc2nc(N)nc(N)c2n1)c1ccc(C(=O)N[C@@H](CCC(=O)O)C(=O)O)cc1 [Methotrexate]
[2]; [19]
  IC50: 25 nM
[3]
  IC50: 25.8 nM
In vitro [4]
  CC50: 11.8 nM

## CC(=O)N(C1=NC(=O)/C(=C/c2cc(C)n(-c3ccc(F)cc3)c2C)S1)c1ccccc1 [OSM-S-9]
[5]
  IC50: 28 nM
PfDHODH [6]
  IC50: > 50000 nM

## Cc1cc(/C=C2\SC(=Nc3ccccc3)NC2=O)c(C)n1-c1ccccc1 [OSM-S-35]
PfDHODH [6]
  IC50: > 50000 nM
[7]
  IC50: > 31600 nM
HEK293
  inhibition at 40 µM: 57%

## Cc1ccc(-n2c(C)cc(/C=C3\SC(=Nc4ccccc4)NC3=O)c2C)cc1 [OSM-S-37]
In vitro [8]
  microsomal CLint: 7 µL/min/mg
  half-life: 4.08 h
In vitro [9]
  microsomal CLint: 7 µL/min/mg
  half-life: 4.08 h
PfDHODH [6]
  IC50: > 50000 nM
[2]; [20]
  IC50: 176 nM
[10]
  IC50: 161 nM
[11]
  IC50: 161 nM
[12]
  IC50: 176 nM

## Cc1cc(/C=C2\S/C(=N\c3ccccc3)NC2=O)c(C)n1-c1ccc(C(F)(F)F)cc1 [OSM-S-38]
[5]
  IC50: 4 nM
In vitro [13]
  CC50: > 50000 nM
PfDHODH [6]
  IC50: > 50000 nM
[14]; female gametocytes
  inhibition at 1 µM: 20.5%
[14]; male gametocytes
  inhibition at 1 µM: 26.5%

## Cc1cc(/C=C2\S/C(=N\c3ccccc3)NC2=O)c(C)n1-c1cc(C(F)(F)F)cc(C(F)(F)F)c1 [OSM-S-39]
[5]
  IC50: 2.6 nM
PfDHODH [6]
  IC50: > 50000 nM
[14]; female gametocytes
  inhibition at 1 µM: 31.3%
[14]; male gametocytes
  inhibition at 1 µM: 36.1%

## Cc1cc(/C=C2\SC(=Nc3ccccc3)N(CC#N)C2=O)c(C)n1-c1ccc(C(F)(F)F)cc1 [OSM-S-42]
PfDHODH [15]
  IC50: > 50000 nM

## Cc1cc(/C=C2\SC(=Nc3ccccc3)N(c3ccccc3)C2=O)c(C)n1-c1ccc(C(F)(F)F)cc1 [OSM-S-52]
PfDHODH [15]
  IC50: > 50000 nM

## Cc1cc(/C=C2\SC(=Nc3ccccc3)N(C3CCCC3)C2=O)c(C)n1-c1ccc(C(F)(F)F)cc1 [OSM-S-54]
PfDHODH [15]
  IC50: > 50000 nM

## COc1ccc(-n2c(C)cc(/C=C3\SC(=Nc4ccccc4)NC3=O)c2C)cc1 [OSM-S-111]
In vitro [16]; read-out: 0.4 / CLint, in vitro / (mL/min/mg protein)
  microsomal CLint: 0.0371 mL/min/mg
In vitro [16]; read-out: Protein Conc. (mg/mL): / Degradation half-life /
  half-life: 0.777 h
[5]
  IC50: 686 nM
In vitro [13]
  CC50: 4390 nM
In vitro [8]
  microsomal CLint: 8 µL/min/mg
  half-life: 3.45 h
In vitro [9]
  microsomal CLint: 8 µL/min/mg
  half-life: 3.45 h
[2]; [20]
  IC50: 204 nM
[10]
  IC50: 147 nM
[11]
  IC50: 147 nM
[12]
  IC50: 204 nM
[17]
  IC50: 345 nM
[14]; male gametocytes
  inhibition at 1 µM: 21.1%
[18]
  IC50: 345 nM
HEK293
  inhibition at 40 µM: 32%

## CCc1nc(N)nc(N)c1-c1ccc(Cl)cc1 [Pyrimethamine]
[2]; [19]
  IC50: 11900 nM
[3]
  IC50: 11 nM
In vitro [4]
  CC50: 13900 nM

## COc1ccc2nc3cc(Cl)ccc3c(Nc3cc(CN4CCCC4)c(O)c(CN4CCCC4)c3)c2n1 [Pyronaridine]
[2]; [19]
  IC50: 21.3 nM
[3]
  IC50: 15.2 nM
In vitro [4]
  CC50: 7700 nM

## COc1ccc(-n2ccnc2SCC(=O)Nc2cc(C(F)(F)F)ccc2Cl)c(OC)c1 [TCMDC-123822]
PfDHODH [1]
  IC50: 48.2 nM
